Experimental data from patent US12331046B2, “CTPS1 inhibitors and uses thereof” (Nimbus Clotho, Inc., priority 2020, dated 2025).

target: human CTPS1 (Homo sapiens (Human), UniProt P17812); test: hCTPS1 biochemical assay (ADP-Glo); details: hCTPS1 25 nM, ATP 120 uM, UTP 160 uM, GTP 60 uM, L-Glutamine 100 uM, 25 degrees C
Sequence (P17812 whole entry): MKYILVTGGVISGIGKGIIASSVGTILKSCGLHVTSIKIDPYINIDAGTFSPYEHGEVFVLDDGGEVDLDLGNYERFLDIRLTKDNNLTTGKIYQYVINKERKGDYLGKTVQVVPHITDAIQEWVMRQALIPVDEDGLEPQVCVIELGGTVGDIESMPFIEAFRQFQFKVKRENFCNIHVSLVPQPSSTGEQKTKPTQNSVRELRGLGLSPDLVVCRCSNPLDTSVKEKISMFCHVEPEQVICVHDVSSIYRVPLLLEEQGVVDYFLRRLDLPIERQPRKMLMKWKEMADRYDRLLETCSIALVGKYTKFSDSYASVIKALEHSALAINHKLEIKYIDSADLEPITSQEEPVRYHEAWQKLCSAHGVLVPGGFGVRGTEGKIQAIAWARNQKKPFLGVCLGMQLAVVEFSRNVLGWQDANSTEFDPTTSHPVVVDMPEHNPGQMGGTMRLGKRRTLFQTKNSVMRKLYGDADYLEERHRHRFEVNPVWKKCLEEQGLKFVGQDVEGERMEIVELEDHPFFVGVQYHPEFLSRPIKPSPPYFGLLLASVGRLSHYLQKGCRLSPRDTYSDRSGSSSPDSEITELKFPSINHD

| IC50 [nM] | SMILES |
| --- | --- |
| < 100 | CCOc1cncc(-c2ccc(NC(=O)C(NC(=O)CCOCCOCCNC(=O)OC(C)(C)C)c3csc(NS(=O)(=O)C4CC4)n3)cc2)n1 (stereo not drawn) [Z-8, tert-butyl 2-(2-(3-(1-(2-(cyclopropanesulfonamido)thiazol-4-yl)-2-(4-(6-ethoxypyrazin-2-yl)phenylamino)-2-oxoethylamino)-3-oxopropoxy)ethoxy)ethylcarbamate] |
| ≥ 1000 | CCOc1cncc(-n2cnc(C(=O)N3CCC[C@@H]3c3ccnc(NS(=O)(=O)C4CC4)n3)c2)n1 [I-275, N-[4-[(2R)-1-[1-(6-ethoxypyrazin-2-yl)imidazole-4-carbonyl]pyrrolidin-2-yl]pyrimidin-2-yl]cyclopropanesulfonamide] |
| < 100 | CCOc1cncc(-c2cnc(C(=O)NC(CN(C)C)c3cc(NS(=O)(=O)C4CC4)ccn3)s2)n1 (stereo not drawn) [I-241] |
| 100 to 1000 | CCOc1cncc(-c2cnc(C(=O)NCc3cc(NS(=O)(=O)C4CC4)ccn3)c(CN(C)C)c2)n1 [I-229] |
| 100 to 1000 | CCOc1cncc(-c2cnc(C(=O)N3CCC[C@@H]3c3ccnc(NS(=O)(=O)C4CC4)n3)s2)n1 [I-270, N-[4-[(2R)-1-[5-(6-ethoxypyrazin-2-yl)-1,3-thiazole-2-carbonyl]pyrrolidin-2-yl]pyrimidin-2-yl]cyclopropanesulfonamide] |
| < 100 | O=C(NCc1cc(NS(=O)(=O)C2CC2)ccn1)c1ncc(-c2cncc(OCC(F)(F)F)n2)s1 [I-243] |
| < 100 | CCOc1cncc(-c2cnc(C(=O)N[C@H](C)c3cccc(NS(=O)(=O)C(F)F)c3)s2)n1 [I-272, N-[(1R)-1-[3-(difluoromethanesulfonamido)phenyl]ethyl]-5-(6-ethoxypyrazin-2-yl)-1,3-thiazole-2-carboxamide] |
| < 100 | CCOc1cncc(-c2cnc(C(=O)NC(CN3CCCCC3)c3cc(NS(=O)(=O)C4CC4)ccn3)s2)n1 (stereo not drawn) [I-224] |
| < 100 | CCOc1cncc(-c2ccc(NC(=O)C(NC(=O)CCOCCNC(=O)OC(C)(C)C)c3csc(NS(=O)(=O)C4CC4)n3)cc2)n1 (stereo not drawn) [Z-7, tert-butyl 2-(3-(1-(2-(cyclopropanesulfonamido)thiazol-4-yl)-2-(4-(6-ethoxypyrazin-2-yl)phenylamino)-2-oxoethylamino)-3-oxopropoxy)ethylcarbamate] |
| 100 to 1000 | O=C(NCc1cc(NS(=O)(=O)C2CC2)ccn1)c1ccc(-c2cncc(C(F)(F)F)n2)cc1F [I-254] |

The remaining lines, values behind:

| SMILES | IC50 [nM] |
| --- | --- |
| O=C(NCc1cc(NS(=O)(=O)C2CC2)ccn1)c1ncc(-c2cncc3c(Cl)cnn23)s1 [I-154] | < 100 |
| O=C(NCc1cc(NS(=O)(=O)C2CC2)ccn1)c1ncc(-c2cnc3ccc(Cl)cn23)s1 [I-170] | 100 to 1000 |
| CCOc1cncc(-c2cnc(C(=O)N[C@@H](CCN3CC[C@@H](F)C3)c3cc(NS(=O)(=O)C4CC4)ccn3)s2)n1 [I-128, N—((S)-1-(4-(cyclopropanesulfonamido)pyridin-2-yl)-3-((R)-3-fluoropyrrolidin-1-yl)propyl)-5-(6-ethoxypyrazin-2-yl)thiazole-2-carboxamide] | < 100 |
| CCOc1cncc(-c2cnc(C(=O)N[C@@H](CN3CCC(N(C)C)CC3)c3cc(NS(=O)(=O)C4CC4)ccn3)s2)n1 (single isomer, unassigned) [I-104] | < 100 |
| CCOc1cncc(-c2cnc(C(=O)NC(CCN3CCC3)c3cc(NS(=O)(=O)C4CC4)ccn3)s2)n1 (stereo not drawn) [I-182, N-(3-(azetidin-1-yl)-1-(4-(cyclopropanesulfonamido)pyridin-2-yl)propyl)-5-(6-ethoxypyrazin-2-yl)thiazole-2-carboxamide] | ≥ 1000 |
| CCOc1cncc(-c2cnc(C(=O)N[C@H](CCN3CCCC3)c3cc(NS(=O)(=O)C4CC4)ccn3)s2)n1 [I-158, (R)—N-(1-(4-(cyclopropanesulfonamido)pyridin-2-yl)-3-(pyrrolidin-1-yl)propyl)-5-(6-ethoxypyrazin-2-yl)thiazole-2-carboxamide] | < 100 |
| CCOc1cncc(-c2ccc(C(=O)NCc3cc(NS(=O)(=O)C4CC4)ccn3)cc2)n1 [I-15, N-((4-(cyclopropanesulfonamido)pyridin-2-yl)methyl)-4-(6-ethoxypyrazin-2-yl) benzamide] | < 100 |
| CCOc1cncc(-c2ccc(C(=O)NCc3cccc(NS(=O)(=O)C(F)F)c3)nc2)n1 [I-63, N-[[3-(difluoromethanesulfonamido)phenyl]methyl]-5-(6-ethoxypyrazin-2-yl)pyridine-2-carboxamide] | < 100 |
| CCOc1cncc(-c2cnc(C(=O)N[C@H](CN3CCCC3)c3cc(NS(=O)(=O)C4CC4)ccn3)s2)n1 [I-199, (R)—N-(1-(4-(cyclopropanesulfonamido)pyridin-2-yl)-2-(pyrrolidin-1-yl)ethyl)-5-(6-ethoxypyrazin-2-yl)thiazole-2-carboxamide] | < 100 |
| CCOc1cncc(-c2ccc(C(=O)NCc3cccc(NS(=O)(=O)C4CC4)c3)nc2)n1 [I-18, N-(3-(cyclopropanesulfonamido)benzyl)-5-(6-ethoxypyrazin-2-yl)picolinamide] | 100 to 1000 |
| CCOc1cncc(-c2sc(C(=O)N[C@@H](CC)c3cc(NS(=O)(=O)C4CC4)ccn3)nc2C)n1 [I-219, (S)—N-(1-(4-(cyclopropanesulfonamido)pyridin-2-yl)propyl)-5-(6-ethoxypyrazin-2-yl)-4-methylthiazole-2-carboxamide] | < 100 |
| CCOc1cncc(-c2ccc(C(=O)NCc3cccc(NS(=O)(=O)C(F)F)c3)cc2)n1 [I-49] | < 100 |
| CCOc1cncc(-c2cnc(C(=O)N[C@@H](c3cc(NS(=O)(=O)C4CC4)ccn3)[C@H]3C[C@@H](N(C)C)C3)s2)n1 (single isomer, unassigned) [I-108] | < 100 |
| CCOc1cncc(-c2cnc(C(=O)NC(CN3CC(F)C3)c3cc(NS(=O)(=O)C4CC4)ccn3)s2)n1 (stereo not drawn) [I-216] | < 100 |
| CCOc1cncc(-c2cnc(C(=O)N[C@H](CCN3CCCCC3)c3cc(NS(=O)(=O)C4CC4)ccn3)s2)n1 [I-160, (R)—N-(1-(4-(cyclopropanesulfonamido)pyridin-2-yl)-3-(piperidin-1-yl)propyl)-5-(6-ethoxypyrazin-2-yl)thiazole-2-carboxamide] | 100 to 1000 |
| CCOc1cncc(-c2cnc(C(=O)N[C@@H](CN3[C@@H]4COC[C@H]3C4)c3cc(NS(=O)(=O)C4CC4)ccn3)s2)n1 [I-114] | < 100 |
| CCOc1cncc(-c2cnc(C(=O)N[C@@H](CN3C[C@H]4C[C@@H]3CO4)c3cc(NS(=O)(=O)C4CC4)ccn3)s2)n1 [I-113, N—((S)-2-((1R,4R)-2-oxa-5-azabicyclo[2.2.1]heptan-5-yl)-1-(4-(cyclopropanesulfonamido)pyridin-2-yl)ethyl)-5-(6-ethoxypyrazin-2-yl)thiazole-2-carboxamide] | < 100 |
| CCOc1cncc(-c2cnc(C(=O)N[C@@H](CCCN(C)C)c3cc(NS(=O)(=O)C4CC4)ccn3)s2)n1 [I-155, (S)—N-(1-(4-(cyclopropanesulfonamido)pyridin-2-yl)-4-(dimethylamino)butyl)-5-(6-ethoxypyrazin-2-yl)thiazole-2-carboxamide] | < 100 |
| O=C(NC1(c2csc(NS(=O)(=O)C3CC3)n2)CC1)c1cnc2ccccc2c1 [I-5, N-(1-(2-(cyclopropanesulfonamido)thiazol-4-yl)cyclopropyl)quinoline-3-carboxamide] | ≥ 1000 |
| CO[C@H]1CCN(c2cncc(-c3ccc(C(=O)NCc4cc(NS(=O)(=O)C5CC5)ccn4)cc3)n2)C1 (stereo in doubt) [I-45] | ≥ 1000 |
